Source: PMC10269165 (Antimicrobial Agents and Chemotherapy, 2023)
Where two headings read alike, the source gives them in different places.

Legend:
[1] = biological target: AcPMT1 (Ancylostoma duodenale, UniProt A0A0C2DEB6); test: biochemical; assay type: biochemical; conditions: for Selectivity index (SI) AcPMT1: IC50^Cytotoxicity/IC50^Enzyme
Procedure: (§1) The chemical compounds were obtained from the National Cancer Institute/Developmental Therapeutics Program Open Chemical Repository. […] Compounds were individually reconstituted in molecular biology grade dimethyl sulfoxide (DMSO) from Sigma-Aldrich to a stock concentration of 10 mM and stored at −20°C until use. Initial screening was conducted using recombinant HcPMT1 protein as enzyme in the methyltransferase assay, with test compounds at a final concentration of 40 μM. […] To the positive reaction mixture, instead of test compound, an equivalent volume of DMSO was added. In the negative-control reaction mixture, instead of HcPMT1 and test compound, equivalent volumes of 1× transferase buffer and DMSO, respectively, were added. Detection buffer (100 μL) containing fluorescence substrate was added into each reaction mixture. The reactions were prepared in triplicate wells in 96-well plates. The plates were covered in aluminum foil and incubated at room temperature with agitation for 30 min, followed by reading the fluorescence at 380EX/520EM. The mean percent inhibition (MPI) of the test compound on enzymatic activity was calculated using the following formula: MPI = ΔRFUpositive control − ΔRFUcompounds/ΔRFUpositive control × 100, where the positive control is a reaction without compound but with recombinant PMT protein and a volume of DMSO equivalent to that of compound used in test reactions; the negative control is the reaction without protein and compounds, but with volumes of dialysis buffer and DMSO equivalent to protein and compound added in the test reaction mixtures, respectively; ΔRFUpositive control represents the absolute relative fluorescence units (RFU) for the positive control, which equals RFUpositive control – RFUnegative control; and ΔRFUcompounds represents the absolute RFU value for the sample with the compounds, which equals RFUcompounds – RFUnegative control.
(§2) The enzymatic assay was set up as described above, with the respective PMT protein as enzyme.

[2] = biological target: DvPMT1 (Dictyocaulus viviparus, UniProt A0A0D8Y714); test: biochemical; assay type: biochemical; conditions: for Selectivity index (SI) DvPMT1: IC50^Cytotoxicity/IC50^Enzyme
Procedure: as §1, §2

[3] = biological target: HcPMT1 (Haemonchus contortus, UniProt U5HK46); test: biochemical; assay type: biochemical; conditions: for Selectivity index (SI) HcPMT1: IC50^Cytotoxicity/IC50^Enzyme
Procedure: as §1, §2

[4] = biological target: OdPMT (Oesophagostomum dentatum, UniProt A0A0B1TAL6); test: biochemical; assay type: biochemical; conditions: for Selectivity index (SI) OdPMT: IC50^Cytotoxicity/IC50^Enzyme;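 as to Selectivity index (SI) OdPMT: cytotoxicity IC50 measured in HCT-8 cells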
Procedure: as §1, §2

[5] = biological target: TcPMT (Toxocara canis, UniProt A0A0B2VTW9); test: biochemical; assay type: biochemical; conditions: for Selectivity index (SI) TcPMT: IC50^Cytotoxicity/IC50^Enzyme
Procedure: as §1, §2

[6] = tested on: nematode PMTs (HcPMT1, AcPMT1, AsPMT, DvPMT1, OdPMT1, TcPMT); test: Cross-inhibition of the panel of nematode PMTs (statements on all PMTs together); assay type: biochemical, parasitic nematodes; conditions: for cross-inhibitory activity against all the five PMTs: 40 μM, AcPMT1, AsPMT, DvPMT1, OdPMT1, TcPMT; for SI values based on the IC50^Enzyme values of the PMT proteins tested: all six PMTs of Table 4
Procedure: The chemical compounds were obtained from the National Cancer Institute/Developmental Therapeutics Program Open Chemical Repository. The library consisted of 419 compounds categorized as Natural Products Set IV (see Table S1). Compounds were individually reconstituted in molecular biology grade dimethyl sulfoxide (DMSO) from Sigma-Aldrich to a stock concentration of 10 mM and stored at −20°C until use. Initial screening was conducted using recombinant HcPMT1 protein as enzyme in the methyltransferase assay, with test compounds at a final concentration of 40 μM. The test reaction mixtures consisted of 40 μM test compound, 2.5 μL of SAM-free methyltransferase reaction buffer, 150 μM PE (pH 7.5), 120 μM SAM (pH 7.8), and 20 ng/μL of HcPMT1 protein, and the final volume made up to 50 μL with 1× transferase assay buffer. […] To the positive reaction mixture, instead of test compound, an equivalent volume of DMSO was added. In the negative-control reaction mixture, instead of HcPMT1 and test compound, equivalent volumes of 1× transferase buffer and DMSO, respectively, were added. Detection buffer (100 μL) containing fluorescence substrate was added into each reaction mixture. The reactions were prepared in triplicate wells in 96-well plates. The plates were covered in aluminum foil and incubated at room temperature with agitation for 30 min, followed by reading the fluorescence at 380EX/520EM. The mean percent inhibition (MPI) of the test compound on enzymatic activity was calculated using the following formula: MPI = ΔRFUpositive control − ΔRFUcompounds/ΔRFUpositive control × 100, where the positive control is a reaction without compound but with recombinant PMT protein and a volume of DMSO equivalent to that of compound used in test reactions; the negative control is the reaction without protein and compounds, but with volumes of dialysis buffer and DMSO equivalent to protein and compound added in the test reaction mixtures, respectively; ΔRFUpositive control represents the absolute relative fluorescence units (RFU) for the positive control, which equals RFUpositive control – RFUnegative control; and ΔRFUcompounds represents the absolute RFU value for the sample with the compounds, which equals RFUcompounds – RFUnegative control.
Compounds that had shown more than 50% inhibition on HcPMT1 activity and had no or very low cytotoxicity against HCT-8 cells were further tested for cross-inhibitory effect against the enzymatic activity of other recombinant PMT proteins (AcPMT1, AsPMT, DvPMT1, OdPMT, and TcPMT) at 40 μM. The enzymatic assay was set up as described above, with the respective PMT protein as enzyme. Compounds that depicted cross-inhibitory activity were further tested at various concentrations to derive their half-maximal effective concentrations (EC50) using nonlinear regression analysis by GraphPad Prism software.

[7] = read-out: Mean IC50 ± SEM, Enzyme AcPMT1
[8] = read-out: Mean IC50 ± SEM, Enzyme DvPMT1
[9] = read-out: Mean IC50 ± SEM, Enzyme HcPMT1
[10] = read-out: Mean IC50 ± SEM, Enzyme OdPMT
[11] = read-out: Mean IC50 ± SEM, Enzyme TcPMT
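For Selectivity index (SI) AcPMT1 in this document: cytotoxicity IC50 measured in HCT-8 cells.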
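For Selectivity index (SI) DvPMT1 in this document: cytotoxicity IC50 measured in HCT-8 cells.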
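For Selectivity index (SI) HcPMT1 in this document: cytotoxicity IC50 measured in HCT-8 cells.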
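For Selectivity index (SI) TcPMT in this document: cytotoxicity IC50 measured in HCT-8 cells.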

Sequence of DvPMT1 (A0A0D8Y714 entry or part of it): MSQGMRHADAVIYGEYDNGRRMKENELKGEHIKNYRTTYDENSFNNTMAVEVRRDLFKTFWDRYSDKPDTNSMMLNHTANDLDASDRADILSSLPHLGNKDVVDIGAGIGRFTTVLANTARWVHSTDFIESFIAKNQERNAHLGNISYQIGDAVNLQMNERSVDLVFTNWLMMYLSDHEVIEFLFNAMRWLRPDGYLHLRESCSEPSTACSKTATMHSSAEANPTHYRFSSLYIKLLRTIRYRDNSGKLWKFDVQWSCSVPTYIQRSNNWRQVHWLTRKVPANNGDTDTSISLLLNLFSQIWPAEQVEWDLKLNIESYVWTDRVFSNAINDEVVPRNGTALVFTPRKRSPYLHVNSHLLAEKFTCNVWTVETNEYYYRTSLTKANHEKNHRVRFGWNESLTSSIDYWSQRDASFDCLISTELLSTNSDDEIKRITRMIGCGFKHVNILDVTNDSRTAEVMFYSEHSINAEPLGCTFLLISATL
Sequence of HcPMT1 (U5HK46 entry or part of it): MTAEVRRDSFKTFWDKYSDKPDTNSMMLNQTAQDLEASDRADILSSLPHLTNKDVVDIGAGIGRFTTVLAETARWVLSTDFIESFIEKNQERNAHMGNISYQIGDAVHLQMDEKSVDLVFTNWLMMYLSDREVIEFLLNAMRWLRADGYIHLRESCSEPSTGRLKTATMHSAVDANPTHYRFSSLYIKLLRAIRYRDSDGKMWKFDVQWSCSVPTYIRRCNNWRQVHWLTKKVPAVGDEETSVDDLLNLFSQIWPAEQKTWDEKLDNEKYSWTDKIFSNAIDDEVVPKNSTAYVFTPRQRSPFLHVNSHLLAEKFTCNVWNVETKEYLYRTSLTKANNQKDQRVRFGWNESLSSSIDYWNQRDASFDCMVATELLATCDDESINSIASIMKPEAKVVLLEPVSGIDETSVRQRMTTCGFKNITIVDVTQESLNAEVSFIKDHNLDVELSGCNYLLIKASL
Sequence of OdPMT (A0A0B1TAL6 entry or part of it): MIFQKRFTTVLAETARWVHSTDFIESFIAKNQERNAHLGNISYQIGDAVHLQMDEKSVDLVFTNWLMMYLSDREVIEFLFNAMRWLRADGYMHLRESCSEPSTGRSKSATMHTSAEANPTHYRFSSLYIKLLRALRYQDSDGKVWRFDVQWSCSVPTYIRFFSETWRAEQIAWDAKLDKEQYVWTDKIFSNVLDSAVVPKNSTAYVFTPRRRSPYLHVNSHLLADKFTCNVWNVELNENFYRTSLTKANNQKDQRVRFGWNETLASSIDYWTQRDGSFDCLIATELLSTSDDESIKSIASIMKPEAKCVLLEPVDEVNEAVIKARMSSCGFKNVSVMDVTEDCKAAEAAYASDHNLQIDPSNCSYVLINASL
Sequence of AcPMT1 (A0A0C2DEB6 entry or part of it): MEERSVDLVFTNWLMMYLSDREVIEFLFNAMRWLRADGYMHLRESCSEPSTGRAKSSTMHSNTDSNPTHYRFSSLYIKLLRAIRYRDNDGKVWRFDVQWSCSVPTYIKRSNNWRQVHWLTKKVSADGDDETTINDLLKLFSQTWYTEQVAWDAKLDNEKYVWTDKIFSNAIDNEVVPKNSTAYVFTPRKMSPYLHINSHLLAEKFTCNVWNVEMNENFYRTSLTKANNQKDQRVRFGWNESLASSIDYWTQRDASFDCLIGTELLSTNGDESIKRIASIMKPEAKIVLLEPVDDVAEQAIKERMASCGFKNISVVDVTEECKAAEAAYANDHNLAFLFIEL
Sequence of TcPMT (A0A0B2VTW9 entry or part of it): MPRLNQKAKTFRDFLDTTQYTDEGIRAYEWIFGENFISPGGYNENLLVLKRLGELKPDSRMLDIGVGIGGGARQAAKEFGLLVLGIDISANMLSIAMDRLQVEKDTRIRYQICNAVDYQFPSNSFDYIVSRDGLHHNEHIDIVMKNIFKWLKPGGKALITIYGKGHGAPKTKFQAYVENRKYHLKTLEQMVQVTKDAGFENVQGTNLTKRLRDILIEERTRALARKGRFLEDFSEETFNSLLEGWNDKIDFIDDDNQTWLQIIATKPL

| Compound | Selectivity index (SI) AcPMT1 [1] | IC50 [1, 7] | Selectivity index (SI) DvPMT1 [2] | IC50 [2, 8] | Selectivity index (SI) HcPMT1 [3] | IC50 [3, 9] | Selectivity index (SI) OdPMT [4] | IC50 [4, 10] | Selectivity index (SI) TcPMT [5] | IC50 [5, 11] | cross-inhibitory activity against all the five PMTs [6] | SI values based on the IC50^Enzyme values of the PMT proteins tested [6] | IC50 [1] | IC50 [2] | IC50 [3] | IC50 [4] | IC50 [5] |
| --- | --- | --- | --- | --- | --- | --- | --- | --- | --- | --- | --- | --- | --- | --- | --- | --- | --- |
| CO[C@@H]1/C=C\O[C@]2(C)Oc3c(C)c(O)c4c(O)c(c(CN(C)C)c(O)c4c3C2=O)NC(=O)/C(C)=C\C=C[C@@H](C)[C@@H](O)[C@H](C)[C@@H](O)[C@H](C)[C@H](OC(C)=O)[C@@H]1C [NSC145612] | 11.05 | 27.4 ± 2.92 µM | 5.49 | 55.1 ± 4.46 µM | 10.83 | 27.9 ± 1.57 µM | 9.11 | 33.2 ± 2.26 µM | 2.77 | 109 ± 12.6 µM | significant cross-inhibitory activity | > 1 | – | – | – | – | – |
| CO[C@@]12[C@H](COC(N)=O)C3=C(C(=O)C(C)=C(N)C3=O)N1C[C@H]1[C@@H]2N1C (stereo partly shown) [NSC56410] | 2.75 | – | 0.10 | – | 3.52 | – | 0.90 | – | 2.23 | – | significant cross-inhibitory activity | – | 68.4 ± 5.39 µM | 1920 µM | 53.5 ± 5.85 µM | 210 ± 73.5 µM | 84.5 ± 6.53 µM |
| CO[C@H]1/C=C/O[C@@]2(C)Oc3c(C)c(O)c4c(O)c(cc(O)c4c3C2=O)NC(=O)/C(C)=C\C=C\[C@H](C)[C@H](O)[C@@H](C)[C@@H](O)[C@@H](C)[C@H](OC(C)=O)[C@@H]1C [NSC133100] | 3.23 | 31.5 ± 2.25 µM | 1.15 | 88.2 ± 4.14 µM | 3.67 | 27.8 ± 1.71 µM | 1.07 | 94.7 ± 5.03 µM | 1.03 | 99.1 ± 9 µM | significant cross-inhibitory activity | > 1 | – | – | – | – | – |
| COc1ccc(-c2c(C)c(C(=O)O)nc(-c3ccc4c(O)c(OC)c5c(c4n3)=NC(C)(C)N=5)c2N)c(O)c1OC [NSC62709] | 22.31 | 13.4 ± 1.3 µM | 10.24 | 29.2 ± 2.13 µM | 10.86 | 27.5 ± 1.97 µM | 9.39 | 31.8 ± 1.8 µM | 10.83 | 27.6 ± 1.26 µM | significant cross-inhibitory activity | > 1 | – | – | – | – | – |
| O=c1c(O)cccc2cc(O)c(O)c(O)c12 [NSC35676, purpurogallin] | 49.02 | 11.5 ± 0.94 µM | 13.44 | 42.1 ± 3.16 µM | 27.96 | 20.2 ± 1.64 µM | 33.80 | 16.8 ± 0.41 µM | 12.35 | 45.9 ± 2.9 µM | significant cross-inhibitory activity | > 1 | – | – | – | – | – |
| COc1cc(C)c2c(c1C=O)Oc1c(c(C)c(O)c3c1C(O)OC3=O)OC2=O (stereo not shown) [NSC87511] | 2.61 | 65.8 ± 9.78 µM | 0.34 | 504 ± 188 µM | 1.10 | 157 ± 26 µM | 0.35 | 488 ± 162 µM | 0.35 | 496 ± 184 µM | significant cross-inhibitory activity | – | – | – | – | – | – |
| CO[C@@H]1/C=C/O[C@@]2(C)Oc3c(C)c(O)c4c(c3C2=O)C(=N[C@@H]2CC[C@@H](O)O[C@H]2C)C=C(NC(=O)/C(C)=C\C(=O)[C@@H]2C[C@@H]2[C@H](O)[C@@H](C)[C@@H](O)[C@@H](C)[C@H](OC(C)=O)[C@@H]1C)C4=O [NSC177383] | 5.76 | 14.8 ± 2.06 µM | 1.80 | 47.6 ± 7.41 µM | 3.93 | 21.7 ± 2.05 µM | 3.20 | 26.7 ± 2 µM | 2.07 | 41.3 ± 2.8 µM | significant cross-inhibitory activity | > 1 | – | – | – | – | – |
